Assay results from patent US11123338B2, “C-met modulator pharmaceutical compositions” (Exelixis, Inc., priority 2010, dated 2021).

What was measured:
[1] = Solid-state stability on exposure to high humidity and high temperature; assay type: physicochemical
[2] = Moisture uptake / hygroscopicity (moisture vapor isotherm); assay type: physicochemical; settings: for Hygroscopicity (remark in words): salt screen summary table
Experimental: Moisture sorption isotherms were collected in a VTI SGA-100 Symmetric Vapor Analyzer using approximately 10 mg of sample. The sample was dried at 60° C. until the loss rate of less than or equal to 0.0005 weight percent per minute was obtained for 10 minutes. […] Equilibration at each RH was reached when the rate of less than or equal to 0.0003 weight percent per minute for 35 minutes was achieved, or at a maximum of 600 minutes.

[3] = Water solubility of free base and salts from the salt screen; settings: for Solubility (remark in words): salt screen
Experimental: The water solubility of the various salts was determined using 10 mg solids per mL water.

[4] = Thermal stability by DSC/TGA; assay type: physicochemical
Experimental: The sample (about 10-30 mg) was placed in a previously tared platinum pan. The weight of the sample was measured accurately and recorded to a thousand of a milligram. The furnace was purged with nitrogen gas at 100 mL/min. Data were collected between room temperature and 300° C. at 10° C./min heating rate.
The sample (about 2-6 mg) was weighed in an aluminum pan, accurately recorded to a hundredth of a milligram, and transferred to the DSC. The instrument was purged with nitrogen gas at 50 mL/min. Data were collected between room temperature and 300° C. at a 10° C./min heating rate.

[5] = Storage stability under controlled temperature / relative humidity; assay type: physicochemical
[6] = water, thermodynamic from solid
[7] = water solubility, 10 mg solids per mL water

Row | Compound | Hygroscopicity (remark in words) [2] | solubility [3, 6] [µg/mL] | Solubility (remark in words) ([3]; water solubility) | solubility [3, 7] [µg/mL] | further results
1 | Cl [Chloride] | Crystalline but Hygroscopic; possible | – | – | – | Moisture sensitivity (phase behaviour on exposure) ([1]; high humidity (75 percent RH) and high temperature (40° C.)): changing phase
2 | O=C(O)[C@H](O)[C@@H](O)C(=O)O [L-Tartrate] | Hygroscopic. | – | – | – | –
3 | Tosylate | – | – | Crystalline salt, low solubility | 7 | –

Second part, led by results:

Row | Hygroscopicity (remark in words) [2] | solubility [3, 6] [µg/mL] | Compound | Solubility (remark in words) ([3]; water solubility) | solubility [3, 7] [µg/mL] | further results
4 | – | < 1 | COc1cc2nccc(Oc3ccc(NC(=O)C4(C(=O)Nc5ccc(F)cc5)CC4)cc3)c2cc1OC [Free base, N-[4-[(6,7-Dimethoxy-4-quinolinyl)oxy]phenyl]-N′-(4-fluorophenyl)-1,1-cyclopropanedicarboxamide] | very low solubility | – | –
5 | Crystalline; non-Hygroscopic with no | 59 | COc1cc2nccc(Oc3ccc(NC(=O)C4(C(=O)Nc5ccc(F)cc5)CC4)cc3)c2cc1OC.O=C(O)C[C@@H](O)C(=O)O [L-Malate, cyclopropane-1,1-dicarboxylic acid [4-(6,7-dimethoxy-quinoline-4-yloxy)-phenyl]-amide (4-fluoro-phenyl)-amide, (L) malate salt] | – | – | Solubility (remark in words) ([3]; water solubility, listed as L-malate salt, malate salt): sufficient solubility; Stable up to (DSC/TGA) [4]: up to 185 °C; Change in assay, purity, moisture, and dissolution ([5]; 25° C./60 percent relative humidity (RH)): no change; Change in assay, purity, moisture, and dissolution ([5]; 40° C./60 percent RH): no change; Chemical/physical stability (remark in words) ([5]; salt screen summary table): chemical/physical stability.; Solid state phase and degree of crystallinity after exposure ([1]; 75 percent RH at 40° C. for 1 week): remained unchanged; Amount of water taken up ([2]; at 90 percent RH): about 0.60 weight percent
6 | Crystalline but Hygroscopic. | – | Phosphate | – | 26 | Weight gain due to absorption of H2O ([2]; highest among the salts tested): 8%
